From publication PMC6930599, “Novel Flavonoid Glycosides of Quercetin from Leaves and Flowers of Gaiadendron punctatum G.Don. (Violeta de Campo), used by the Saraguro Community in Southern Ecuador, Inhibit α-Glucosidase Enzyme” (Molecules, 2019) come the findings set out here.

What all share (assay type): biochemical
The target of assay [1] is T1, α-glucosidase (Saccharomyces cerevisiae, Sigma G5003).
T1 construct: gene MAL12; commercial yeast enzyme preparation (Sigma)
The experiment in a line: p-nitrophenol release at […] nm, microplate. The conditions noted are these: PNPG (20 μL of 5 mM), PBS pH 7.4, 37 °C, 5 min pre-incubation; error is SE; read-out: α-Glucosidase IC50 (SE) (mg/mL, μM†).

The target is the same in assay [2]. As to the kind of experiment: p-nitrophenol release at […] nm, progress curves at several PNPG and inhibitor concentrations. Conditions: PNPG 1-15 mM, pH 7.4, 37 °C, unreliable: b44 prints another KI, Ki unit not printed (doses in μM).
In assay [3] the test system is T1, α-glucosidase (Saccharomyces cerevisiae, Sigma G5003). As to the kind of experiment: p-nitrophenol release at […] nm, initial PNPG varied. The conditions noted are these: no inhibitor; PBS pH 7.4, 37 °C; error is SE.

Regarding `C[C@@H]1O[C@@H](OC[C@H]2O[C@@H](Oc3c(-c4ccc(O)cc4)oc4cc(O)cc(O)c4c3=O)[C@H](O)[C@@H](O)[C@@H]2O)[C@H](O)[C@H](O)[C@H]1O` [compound 1, Nicotiflorin], the IC50 in assay [1] came out at 159 µM.

For `C[C@@H]1O[C@H](O[C@@H]2[C@@H](O)[C@H](O)[C@@H](COc3ccc(-c4oc5cc(O)cc(O)c5c(=O)c4O)cc3O)O[C@H]2O)[C@H](O)[C@H](O)[C@H]1O` [compound 4, quercetin-4’-O-(2-O-β-rhamno-pyranosyl-6-β-glucopyranoside)], the Ki in assay [2] (competitive in table, non-competitive in abstract) is 3.92 (1.48). Further, the IC50 in assay [1] came to 9.66 µM.

With `C[C@@H]1O[C@H](OC[C@H]2O[C@@H](Oc3c(-c4ccc(O)c(O)c4)oc4cc(O)cc(O)c4c3=O)[C@H](O[C@H]3O[C@@H](C)[C@H](O)[C@@H](O)[C@H]3O)[C@@H](O)[C@@H]2O)[C@H](O)[C@H](O)[C@H]1O` [compound 5, quercetin-3-O-(2,6-di-O-β,β-rhamno-pyranosyl-β-glucopyranoside)], the Ki in assay [2] (non-competitive in table, competitive in abstract) is 12.29(1.58). Moreover, the IC50 in assay [1] was determined as 16.9 µM.

Usually Km stands for the substrate concentration at which the rate is half of its maximum. With `O=[N+]([O-])c1ccc(O[C@H]2O[C@H](CO)[C@@H](O)[C@H](O)[C@H]2O)cc1` [p-Nitrophenyl-α-D-glucopyranoside], the Km in assay [3] came to 986 µM.
